Data on one compound can be found in ChEMBL document CHEMBL5113527, “First-in-Class Hydrazide-Based HDAC6 Selective Inhibitor with Potent Oral Anti-Inflammatory Activity by Attenuating NLRP3 Inflammasome Activation” (J Med Chem, 2022).

The term IC50 denotes the concentration at which inhibition is half-maximal.

Series [1] in a line: Brain concentration in CD-1 mouse at 20 mg/kg measured after 4 hrs by LC-MS/MS analysis. It counts as ADME, organism-based. Particulars: read-out: Ct.
Another series concerns the target T1, Histone deacetylase 8 (Homo sapiens, UniProt Q9BY41).
T1 sequence (Q9BY41 whole entry): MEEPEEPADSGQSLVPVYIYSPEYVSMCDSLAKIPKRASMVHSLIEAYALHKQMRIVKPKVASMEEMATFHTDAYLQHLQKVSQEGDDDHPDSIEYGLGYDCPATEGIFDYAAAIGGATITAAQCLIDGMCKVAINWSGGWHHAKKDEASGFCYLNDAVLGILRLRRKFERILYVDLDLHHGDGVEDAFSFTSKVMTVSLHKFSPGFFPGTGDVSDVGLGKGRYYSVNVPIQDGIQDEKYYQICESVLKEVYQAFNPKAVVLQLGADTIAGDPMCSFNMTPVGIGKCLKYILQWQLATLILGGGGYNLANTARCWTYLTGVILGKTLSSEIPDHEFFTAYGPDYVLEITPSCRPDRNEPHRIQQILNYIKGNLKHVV
The series can be described thus: Inhibition of recombinant HDAC8 (unknown origin) using Boc-Lys (trifluoroacetyl) AMC as substrate preincubated for 1 hr followed by substrate addition and measured after 2 hrs by fluorescence based microplate reader analysis.

A short description of series [2]: Brain concentration in CD-1 mouse at 20 mg/kg measured after 1 hrs by LC-MS/MS analysis. It counts as ADME, organism-based. The conditions noted are these: read-out: Ct.
The test system of the next series is HEK293. The series can be described thus: Cytotoxicity against human HEK293 cells assessed as reduction in cell viability at 100 uM measured after 48 hrs by spectrophotometric analysis. It counts as toxicity, cell-based. Particulars: hek293, 48 h.
Series [3] in a line: Plasma concentration in CD-1 mouse at 20 mg/kg measured after 0.5 hrs by LC-MS/MS analysis. It counts as ADME, organism-based.

On to `CCNNC(=O)c1ccc(CN2c3ccccc3C=Cc3ccncc32)cc1`, for which the concentration at 4 h in series [1] came out at 245 ng/mL. For the same compound, the IC50 at Histone deacetylase 8 was above 5 µM. Besides, in series [2], the concentration at 1 h amounted to 7400 ng/mL. Besides, the Activity result in the series with HEK293 is “Non-Toxic”. In series [3], this compound displayed a concentration at 0.5 h of 7740 ng/mL.
